Experimental findings from US20250255851A1, “SOLID FORMS OF AN ALDOSTERONE SYNTHASE INHIBITOR” (Boehringer Ingelheim International GmbH, priority 2024, published 2025) are described below.

Holding throughout (format): physicochemical
The nature of series [1]: Dynamic Vapor Sorption (DVS) water sorption isotherm. As to the method:
Water sorption isotherms are determined using a dynamic vapor sorption system (Advantage 1, DVS, London, UKDVS Intrinsic Plus, Surface Measurement Systems, Allentown, PA). Approximately 5-10 mg of solid is weighed into a tared aluminum pan. […] Equilibration criteria are dm/dt of 0.002% over 5 minutes or 360 minutes at a specified % RH. Each sample is equilibrated at each RH step for at least 60 min, and equilibrium is assumed if weight increase is less than 0.1% within one minute, and the maximum duration on each RH is 6 hours. Therefore, each sample is held at a given RH for 1 to 6 hours depending on how fast the equilibrium is reached. Exemplary DVS of the compounds of the invention are found in the Figures.

Series [2] can be described thus: Stability of crystalline form (resistance to change in crystalline form). An excerpt:
However, these solvate of Compound 1 are generally not as stable (for example, resistant to change in crystalline form) as Form I and Form X. This lack of stability generally requires special processing and storage conditions for the solvates, thus making them less desirable as a component of a solid form of a pharmaceutical preparation. […] Alternatively, processes for preparing Compound 1 may involve formation of a crystalline solvate form of Compound 1 as an intermediate step prior to final preparation of Form I or Form X. For example, the purification and/or isolation of the crystalline solvates of Compound 1 may be used to remove impurities prior to conversion of the crystalline solvates to Form I and/or Form X using methods described herein.
Despite the lower stability of the other crystalline forms of Compound 1 (Forms II, Ill, IV, VI, VII and IX), the other crystalline forms are still useful as intermediates to prepare Form I and/or Form X as described herein.

The nature of series [3]: Biopharmaceutics Classification System (BCS) classification.
Series [4] is described as follows: Storage stability of solid form samples at controlled temperature and relative humidity. The following applies: at least 9 months at 25° and 60% and at least 6 months at 40° and 75% relative humidity; both storage conditions. The procedure:
Samples of Form I were maintained for at least 9 months at 25°, and 60% and at least 6 months at 40° and 75% relative humidity.
Samples of Form X were maintained for at least 9 months at 25°, and 60% and at least 6 months at 40° and 75% relative humidity.

With `C[C@]1(CO)Cc2ncn(-c3ccc(C#N)c(Cl)c3)c2C(=O)O1` [Form X, 2-chloro-4-[(6R)-6-(hydroxymethyl)-6-methyl-4-oxo-3H,4H,6H,7H-pyrano[3,4-d]imidazol-3-yl]benzonitrile], the “water uptake (DVS)” value in series [1] (at 90% Rh during the second cycle, 25° C.) was “about 0.07%”.

Take `C[C@]1(CO)Cc2ncn(-c3ccc(C#N)c(Cl)c3)c2C(=O)O1` [Form VI, 2-chloro-4-[(6R)-6-(hydroxymethyl)-6-methyl-4-oxo-3H,4H,6H,7H-pyrano[3,4-d]imidazol-3-yl]benzonitrile]: the “solid form transformation during DVS (solvent replaced by water)” value in series [1] (DVS cycles, 25° C.) is “transformed to a mixture of Form I and Form III”. Moreover, the “mass stability over humidity range (DVS profile)” value in series [1] (sharp descending step when 80% RH was reached) is given as “stable over a wide humidity range from RH=0 to the 80%”.

With `C[C@]1(CO)Cc2ncn(-c3ccc(C#N)c(Cl)c3)c2C(=O)O1` [Form IV, 2-chloro-4-[(6R)-6-(hydroxymethyl)-6-methyl-4-oxo-3H,4H,6H,7H-pyrano[3,4-d]imidazol-3-yl]benzonitrile], the “conversion of crystalline form” value in series [2] (at elevated temperature and/or under high humidity) is on record as “convert to Form I and/or Form X”.

Turning to `C[C@]1(CO)Cc2ncn(-c3ccc(C#N)c(Cl)c3)c2C(=O)O1` [Form I, 2-chloro-4-[(6R)-6-(hydroxymethyl)-6-methyl-4-oxo-3H,4H,6H,7H-pyrano[3,4-d]imidazol-3-yl]benzonitrile], in series [1] (at 95% Rh during the second cycle, 25° C.), the “water uptake (DVS)” value is “about 0.4 % (wt.)”. In series [1] (second DVS cycle), the “hygroscopicity (from DVS plot)” value is given as “non-hygroscopic”. For the same compound, the BCS class entry in series [3] was “class 1”. The “relative stability of crystalline form (resistance to change in form)” value in series [2] (compared with Form II, Form III and the crystalline solvate forms) is reported as “more stable”. In series [4], the “impurity levels after storage” value is on record as “no increase in impurity levels”, the “particle size distribution after storage” value is reported as “no change in particle sized distribution”, the “solid form after storage” value is reported as “no change in solid form” and the “water content after storage” value is listed as “no increase in water content”.
